Patent US7625948B2, “Ester compound and medicinal use thereof” (Japan Tobacco Inc., priority 2002, dated 2009)

Tests used:
[1] = biological target: T1, Microsomal triglyceride transfer protein (MTP) from bovine liver (Bos taurus, UniProt P55156); experiment: Test Example 1: inhibition of interliposomal triglyceride (TG) transfer activity by MTP (also used for metabolites in Test Example 8); type: biochemical; settings: MTP-mediated 14C-triolein transfer between liposomes, 37° C., one hour; read-out: Test Example 1 MTP inhibition IC50
T1 construct: from tissue; host or cells: bovine liver
T1 sequence (P55156 12-887): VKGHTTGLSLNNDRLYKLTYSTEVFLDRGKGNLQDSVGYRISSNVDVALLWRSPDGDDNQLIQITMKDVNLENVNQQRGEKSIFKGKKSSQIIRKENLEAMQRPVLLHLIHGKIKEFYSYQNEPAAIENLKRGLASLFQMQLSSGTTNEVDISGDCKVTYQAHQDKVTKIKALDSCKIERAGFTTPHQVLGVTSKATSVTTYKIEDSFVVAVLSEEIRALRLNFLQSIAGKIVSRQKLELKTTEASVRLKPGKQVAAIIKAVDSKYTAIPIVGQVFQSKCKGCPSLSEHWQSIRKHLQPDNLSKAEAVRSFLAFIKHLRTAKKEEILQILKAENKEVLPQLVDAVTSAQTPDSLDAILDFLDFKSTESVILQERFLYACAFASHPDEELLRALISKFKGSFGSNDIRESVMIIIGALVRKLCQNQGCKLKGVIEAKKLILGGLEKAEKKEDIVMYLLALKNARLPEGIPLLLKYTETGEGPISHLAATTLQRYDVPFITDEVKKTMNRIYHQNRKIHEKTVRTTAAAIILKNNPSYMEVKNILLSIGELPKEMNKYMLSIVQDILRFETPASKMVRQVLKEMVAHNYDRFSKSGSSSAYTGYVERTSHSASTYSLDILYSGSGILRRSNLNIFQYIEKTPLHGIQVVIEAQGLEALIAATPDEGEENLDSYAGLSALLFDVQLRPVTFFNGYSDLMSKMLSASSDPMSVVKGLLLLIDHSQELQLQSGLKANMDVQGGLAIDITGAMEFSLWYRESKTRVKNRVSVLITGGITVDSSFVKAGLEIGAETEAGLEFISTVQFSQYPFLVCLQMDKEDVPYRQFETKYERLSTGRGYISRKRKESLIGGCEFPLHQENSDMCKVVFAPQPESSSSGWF
T1 sequence (P05307 21-510 partner): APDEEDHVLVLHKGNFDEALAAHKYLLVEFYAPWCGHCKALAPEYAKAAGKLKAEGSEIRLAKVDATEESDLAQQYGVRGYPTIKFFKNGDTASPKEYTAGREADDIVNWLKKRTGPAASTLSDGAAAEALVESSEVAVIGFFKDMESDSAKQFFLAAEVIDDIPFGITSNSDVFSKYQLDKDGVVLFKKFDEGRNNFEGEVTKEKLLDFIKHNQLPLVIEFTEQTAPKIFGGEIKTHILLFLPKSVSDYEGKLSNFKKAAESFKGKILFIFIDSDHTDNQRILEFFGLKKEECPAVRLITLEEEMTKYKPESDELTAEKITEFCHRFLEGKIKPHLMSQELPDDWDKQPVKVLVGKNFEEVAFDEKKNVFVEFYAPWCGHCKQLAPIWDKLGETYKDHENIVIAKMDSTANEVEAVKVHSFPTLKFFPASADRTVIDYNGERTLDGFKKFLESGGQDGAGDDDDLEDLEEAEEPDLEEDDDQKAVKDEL
How it was run: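 Partially purified bovine liver MTP (DEAE chromatography) incubated 1 h at 37 °C, pH 7.4, with ^14C-triolein-labelled donor SUVs and unlabelled acceptor SUVs plus compound in DMSO. Acceptor radioactivity, blank-corrected, gave % inhibition versus DMSO; IC50 derived. Metabolites tested likewise.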

Syrian hamsters = experiment: Test Example 4: liver TG release inhibition test (Triton WR 1339); type: in vivo; settings: Triton WR 1339, plasma TG release velocity over 2 h, fasted Syrian hamsters
Protocol: Liver TG Release Inhibition Test
Syrian hamsters (9 to 11 weeks of age) which were fasted for one day were used in the test. Blood was collected previously from orbital venous plexus, and a sample was forced to be administered orally to the hamsters at a dose of 30, 100 or 300 mg/2 mL/kg, and the same amount of vehicle was administered to the control group. Triton WR 1339 (2 mL/kg) was intravenously administered to the hamsters 30 minutes after the above administration. Two hours later, blood was collected from orbital venous plexus, and plasma was separated from the blood. The amount of TG in the plasma was determined by automatic analyzer (Hitachi Co.). The data was expressed in terms of TG release velocity (mg/dL/min)=(value at 2nd hour minus value before administration)/120. Inhibition rate (%) was calculated from the data obtained on the basis of the following equation.
Inhibition rate (%)=100×(1 minus TG release velocity of sample/TG release velocity of control group).

Structure (SMILES)	IC50 [1]	also measured
CCOC(=O)C(COC(=O)Cc1ccc(OC(=O)c2ccccc2-c2ccc(C(F)(F)F)cc2)cc1)(C(=O)OCC)c1ccccc1 [Example 1-2, 2-Phenyl-2-{2-[4-(4′-trifluoromethylbiphenyl-2-carbonyloxy)phenyl]acetoxymethyl}malonic acid diethyl ester]	42 nM	
CCNC(=O)C(COC(=O)Cc1ccc(NC(=O)c2ccccc2-c2ccc(C(F)(F)F)cc2)c(C(=O)N(C)C)c1)(C(=O)NCC)c1ccccc1 [Example 2, {3-Dimethylcarbamoyl-4-[(4′-trifluoromethylbiphenyl-2-carbonyl)amino]phenyl}acetic acid 2,2-bisethylcarbamoyl-2-phenylethyl ester]	0.62 nM	
CCNC(=O)C(COC(=O)Cc1ccc(NC(=O)c2ccccc2-c2ccc(C(F)(F)F)cc2)cc1)(C(=O)NCC)c1ccccc1 [Example 1, 4-[(4′-Trifluoromethylbiphenyl-2-carbonyl)amino]phenyl-acetic acid 2,2-bisethylcarbamoyl-2-phenylethyl ester]	0.6 nM	Inhibition of liver TG release in Hamster, Inhibition rate(%) (Syrian hamsters; 300 mg/kg p.o.): 19(300) %
O=C(Cc1ccc(NC(=O)c2ccccc2-c2ccc(C(F)(F)F)cc2)cc1)OCC1(C(=O)NCC(F)(F)F)c2ccccc2-c2ccccc21 [Example 1-6]	1.2 nM	Inhibition of liver TG release in Hamster, Inhibition rate(%) (Syrian hamsters; 100 mg/kg p.o.): 0(100) %
COC(=O)C(COC(=O)Cc1ccc(NC(=O)c2ccccc2-c2ccc(C(F)(F)F)cc2)cc1)(C(=O)OC)c1ccccc1 [Example 1-13]	5.8 nM	
CCCNC(=O)C(COC(=O)Cc1ccc(NC(=O)c2ccccc2-c2ccc(C(F)(F)F)cc2)cc1)(C(=O)NCCC)c1ccccc1 [Example 1-35]	1 nM	Inhibition of liver TG release in Hamster, Inhibition rate(%) (Syrian hamsters; 300 mg/kg p.o.): 9(300) %
O=C(Cc1ccc(NC(=O)c2ccccc2-c2ccc(C(F)(F)F)cc2)cc1)OCC(C(=O)NCC(F)(F)F)(C(=O)NCC(F)(F)F)c1ccccc1 [Example 1-12]	7.6 nM	
CCNC(=O)C(COC(=O)Cc1ccc(NC(=O)c2ccccc2-c2ccc(C(F)(F)F)cc2)c(CC)c1)(C(=O)NCC)c1ccccc1 [Example 1-5, {3-Ethyl-4-[(4′-trifluoromethylbiphenyl-2-carbonyl)amino]phenyl}acetic acid 2,2-bisethylcarbamoyl-2-phenylethyl ester]	0.66 nM	

Further lines, with some results ahead:

IC50 [1]	Structure (SMILES)	also measured
1.4 nM	CCOC(=O)C(COC(=O)Cc1ccc(NC(=O)c2ccccc2-c2ccc(C(F)(F)F)cc2)c(C(=O)N2CCCC2)c1)(C(=O)OCC)c1ccccc1 [Example 2-22]	Inhibition of liver TG release in Hamster, Inhibition rate(%) (Syrian hamsters; 30 mg/kg p.o.): 0(30) %
1.4 nM	CCOC(=O)C(COC(=O)Cc1ccc(NC(=O)c2ccccc2-c2ccc(C(F)(F)F)cc2)c(C(=O)N(C)C)c1)(C(=O)OCC)c1ccccc1 [Example 2-5]	Inhibition of liver TG release in Hamster, Inhibition rate(%) (Syrian hamsters; 100 mg/kg p.o.): 0(100) %
0.94 nM	CCNC(=O)C(CCOC(=O)Cc1ccc(NC(=O)c2ccccc2-c2ccc(C(F)(F)F)cc2)c(C(=O)N(C)C)c1)(C(=O)NCC)c1ccccc1 [Example 2-4]	
2.1 nM	CCNC(=O)C(COC(=O)Cc1ccc(NC(=O)c2ccccc2-c2ccc(C(F)(F)F)cc2)c(C(=O)NC)c1)(C(=O)NCC)c1ccccc1 [Example 2-3]	
1.4 nM	CCCNC(=O)C(COC(=O)Cc1ccc(NC(=O)c2ccccc2-c2ccc(C(F)(F)F)cc2)c(C(=O)N(C)C)c1)(C(=O)NCCC)c1ccccc1 [Example 2-2]	
5 nM	CCNC(=O)C(CCOC(=O)Cc1ccc(NC(=O)c2ccccc2-c2ccc(C(F)(F)F)cc2)c(OC)c1)(C(=O)NCC)c1ccccc1 [Example 3-6]	
0.74 nM	COC(=O)C(COC(=O)Cc1ccc(NC(=O)c2ccccc2-c2ccc(C(F)(F)F)cc2)c(C(=O)N(C)C)c1)(C(=O)OC)c1ccccc1 [Example 2-39]	Inhibition of liver TG release in Hamster, Inhibition rate(%) (Syrian hamsters; 100 mg/kg p.o.): 6(100) %
0.4 nM	CCNC(=O)C(COC(=O)Cc1ccc(NC(=O)c2ccccc2-c2ccc(C(F)(F)F)cc2)c(OC)c1)(C(=O)NCC)c1ccccc1 [Example 3-3]	Inhibition of liver TG release in Hamster, Inhibition rate(%) (Syrian hamsters; 100 mg/kg p.o.): 18(100) %
2.7 nM	CCNC(=O)C(COC(=O)Cc1ccc(NC(=O)c2ccccc2-c2ccc(C(F)(F)F)cc2)c(OC(C)C)c1)(C(=O)NCC)c1ccccc1 [Example 3-10]	
1.1 nM	CCNC(=O)C(CCCOC(=O)Cc1ccc(NC(=O)c2ccccc2-c2ccc(C(F)(F)F)cc2)c(C(=O)N(C)C)c1)(C(=O)NCC)c1ccccc1 [Example 2-7]	
3.7 nM	CCNC(=O)C(CCOC(=O)Cc1ccc(NC(=O)c2ccccc2-c2ccc(C(F)(F)F)cc2)c(OCC)c1)(C(=O)NCC)c1ccccc1 [Example 3-8]	
